Laboratory results from patent US5385891A, “Polysulfate of β-cyclodextrin derivative and process for preparing the same” (Tanabe Seiyaku Co., Ltd., priority 1991, dated 1995).
Counter-ions that a name gives are not always drawn.

Tested on: HIV in MT-4 cells
Assay: HIV Proliferation Inhibitory Activity (MT-4 cells, 10% FCS)
Assay type: cell-based, HIV (a culture supernatant of TALL-1/LAV-1)
Conditions: Human immunodeficiency virus 1, MT4, 120 h, read-out: HIV proliferation inhibitory activity, 100% inhibition concentration
Experimental: It is known that when MT-4 cells which are sustaining infectious cell lines of human T-cell Leukemia virus I type (HTLV-I) are infected with HIV, HIV proliferates rapidly and the MT-4 cells are killed in 5 to 6 days due to the cellular damage. Therefore, HIV proliferation inhibitory activity of a sample can be evaluated by examining the number of viable cells of the MT-4 cells infected with HIV.
MT-4 cells were infected with HIV (a culture supernatant of TALL-1/LAV-1) at 37° C. for one hour so that TCID50 (median tissue culture infectious dose)/cell might be 0.001, followed by washing with the medium. The infected MT-4 cells were then suspended at a concentration of 1×10^5 cell/ml in RPMI-1640 media (containing 10% of FCS (fetal calf serum)) containing samples of various concentrations, respectively. Each of the thus obtained cell suspension was introduced in a flat bottom culture plate in an amount of 200 μl/well and was incubated at 37° C. in the presence of 5% carbon dioxide for 5 days. After incubation, the number of viable cells in the cell suspension was counted by the Tripan-Blue Staining Method. The HIV proliferation inhibitory activity of a sample was evaluated in terms of the concentration of the sample which suppresses by 100% the infectiousness and the cell modification activity of HIV in MT-4 cells.

| SMILES | IC100 [µg/mL] |
| --- | --- |
| O=S(=O)(O)OC[C@H]1O[C@@H]2O[C@H]3[C@H](OS(=O)(=O)O)[C@@H](OCc4ccc(F)cc4)[C@@H](O[C@H]4[C@H](OS(=O)(=O)O)[C@@H](OCc5ccc(F)cc5)[C@@H](O[C@H]5[C@H](OS(=O)(=O)O)[C@@H](OCc6ccc(F)cc6)[C@@H](O[C@H]6[C@H](OS(=O)(=O)O)[C@@H](OCc7ccc(F)cc7)[C@@H](O[C@H]7[C@H](OS(=O)(=O)O)[C@@H](OCc8ccc(F)cc8)[C@@H](O[C@H]8[C@H](OS(=O)(=O)O)[C@@H](OCc9ccc(F)cc9)[C@@H](O[C@H]1[C@H](OS(=O)(=O)O)[C@H]2OCc1ccc(F)cc1)O[C@@H]8COS(=O)(=O)O)O[C@@H]7COS(=O)(=O)O)O[C@@H]6COS(=O)(=O)O)O[C@@H]5COS(=O)(=O)O)O[C@@H]4COS(=O)(=O)O)O[C@@H]3COS(=O)(=O)O [Example 6] | 3.9 |
| O=S(=O)(O)OC[C@H]1O[C@@H]2O[C@H]3[C@H](OS(=O)(=O)O)[C@@H](OCc4ccccc4)[C@@H](O[C@H]4[C@H](OS(=O)(=O)O)[C@@H](OCc5ccccc5)[C@@H](O[C@H]5[C@H](OS(=O)(=O)O)[C@@H](OCc6ccccc6)[C@@H](O[C@H]6[C@H](OS(=O)(=O)O)[C@@H](OCc7ccccc7)[C@@H](O[C@H]7[C@H](OS(=O)(=O)O)[C@@H](OCc8ccccc8)[C@@H](O[C@H]8[C@H](OS(=O)(=O)O)[C@@H](OCc9ccccc9)[C@@H](O[C@H]1[C@H](OS(=O)(=O)O)[C@H]2OCc1ccccc1)O[C@@H]8COS(=O)(=O)O)O[C@@H]7COS(=O)(=O)O)O[C@@H]6COS(=O)(=O)O)O[C@@H]5COS(=O)(=O)O)O[C@@H]4COS(=O)(=O)O)O[C@@H]3COS(=O)(=O)O [Example 1, sodium salt of heptakis(2-O-benzyl)-β-cyclodextrin polysulfate] | 0.98 |
